Experimental data reported in the supplement of paper PMC11451515.

System: NOMO1
Assay: cell viability relative to DMSO control; higher = less cytotoxic
Conditions: 48 h
Outline: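 Viability, reported as a per-plate percentage of DMSO wells with cell-free wells as background, came from CellTiter-Glo One luminescence. Reading took place after 48 h at 37°C. Before that, NOMO1 or SEM (500 cells/well) or P12-Ichikawa (1000 cells/well) leukemia cells, adapted for at least four passages in each medium, were seeded in 1536-well plates (5 μl) and pin-dosed with library compounds in DMSO, 47 μM to 0.79 nM over 11 threefold points.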

[1] = HPLM + 10% dialyzed FBS, 0.000781 µM
[2] = HPLM + 10% dialyzed FBS, 0.00234 µM
[3] = HPLM + 10% dialyzed FBS, 0.00702 µM
[4] = HPLM + 10% dialyzed FBS, 0.0211 µM
[5] = HPLM + 10% dialyzed FBS, 0.0632 µM
[6] = HPLM + 10% dialyzed FBS, 0.19 µM
[7] = HPLM + 10% dialyzed FBS, 0.569 µM
[8] = HPLM + 10% dialyzed FBS, 1.71 µM
[9] = HPLM + 10% dialyzed FBS, 5.12 µM
[10] = HPLM + 10% dialyzed FBS, 15.4 µM
[11] = HPLM + 10% dialyzed FBS, 46.1 µM
[12] = RPMI 5 mM glucose + 10% FBS, 0.000781 µM
[13] = RPMI 5 mM glucose + 10% FBS, 0.00234 µM
[14] = RPMI 5 mM glucose + 10% FBS, 0.00702 µM
[15] = RPMI 5 mM glucose + 10% FBS, 0.0211 µM
[16] = RPMI 5 mM glucose + 10% FBS, 0.0632 µM
[17] = RPMI 5 mM glucose + 10% FBS, 0.19 µM
[18] = RPMI 5 mM glucose + 10% FBS, 0.569 µM
[19] = RPMI 5 mM glucose + 10% FBS, 1.71 µM
[20] = RPMI 5 mM glucose + 10% FBS, 5.12 µM
[21] = RPMI 5 mM glucose + 10% FBS, 15.4 µM
[22] = RPMI 5 mM glucose + 10% FBS, 46.1 µM
[23] = RPMI 5 mM glucose + 10% dialyzed FBS, 0.000781 µM
[24] = RPMI 5 mM glucose + 10% dialyzed FBS, 0.00234 µM
[25] = RPMI 5 mM glucose + 10% dialyzed FBS, 0.00702 µM
[26] = RPMI 5 mM glucose + 10% dialyzed FBS, 0.0211 µM
[27] = RPMI 5 mM glucose + 10% dialyzed FBS, 0.0632 µM
[28] = RPMI 5 mM glucose + 10% dialyzed FBS, 0.19 µM
[29] = RPMI 5 mM glucose + 10% dialyzed FBS, 0.569 µM
[30] = RPMI 5 mM glucose + 10% dialyzed FBS, 1.71 µM
[31] = RPMI 5 mM glucose + 10% dialyzed FBS, 5.12 µM
[32] = RPMI 5 mM glucose + 10% dialyzed FBS, 15.4 µM
[33] = RPMI 5 mM glucose + 10% dialyzed FBS, 46.1 µM

| SMILES | cell viability [1] [%] | cell viability [2] [%] | cell viability [3] [%] | cell viability [4] [%] | cell viability [5] [%] | cell viability [6] [%] | cell viability [7] [%] | cell viability [8] [%] | cell viability [9] [%] | cell viability [10] [%] | cell viability [11] [%] | cell viability [12] [%] | cell viability [13] [%] | cell viability [14] [%] | cell viability [15] [%] | cell viability [16] [%] | cell viability [17] [%] | cell viability [18] [%] | cell viability [19] [%] | cell viability [20] [%] | cell viability [21] [%] | cell viability [22] [%] | cell viability [23] [%] | cell viability [24] [%] | cell viability [25] [%] | cell viability [26] [%] | cell viability [27] [%] | cell viability [28] [%] | cell viability [29] [%] | cell viability [30] [%] | cell viability [31] [%] | cell viability [32] [%] | cell viability [33] [%] |
| --- | --- | --- | --- | --- | --- | --- | --- | --- | --- | --- | --- | --- | --- | --- | --- | --- | --- | --- | --- | --- | --- | --- | --- | --- | --- | --- | --- | --- | --- | --- | --- | --- | --- |
| O=C(O)c1cccnc1 | 121 | 114 | 130 | 118 | 115 | 123 | 107 | 85.2 | 49.4 | 27.4 | 13.2 | 121 | 123 | 121 | 102 | 124 | 116 | 112 | 101 | 85 | 23.7 | 14.4 | 116 | 117 | 116 | 117 | 118 | 122 | 117 | 98.6 | 61.5 | 22.1 | 10 |
| CCC[C@H](Nc1nc(-c2ccc(NC(=O)NCC)c(OC)c2)ncc1C)c1cccnc1 | 119 | 109 | 115 | 126 | 47.8 | 41.7 | 44.2 | 48.7 | 45.8 | 48.4 | 39.7 | 114 | 112 | 129 | 115 | 50 | 31.5 | 33.8 | 26.4 | 27.8 | 30.9 | 25.7 | 105 | 120 | 122 | 125 | 34.6 | 35.3 | 39.2 | 31.2 | 23.9 | 31.1 | 28.7 |
| CCC(=O)NC[C@H](Cc1ccc(OCCc2nc(-c3ccccc3)oc2C)cc1)N/C(C)=C\C(=O)c1ccc(C(F)(F)F)cc1 | 98.9 | 104 | 101 | 122 | 114 | 130 | 96.3 | 104 | 103 | 54.3 | 27.1 | 102 | 114 | 109 | 99.6 | 106 | 112 | 101 | 109 | 113 | 62.4 | 19.2 | 97.9 | 113 | 102 | 115 | 106 | 117 | 107 | 107 | 90.8 | 105 | 43.7 |
| CC[C@H](CO)Nc1nc(NCc2ccccc2)c2ncn(C(C)C)c2n1 | 98.6 | 95.1 | 98.5 | 99.4 | 89.8 | 88 | 89.4 | 82.9 | 85.7 | 96.4 | 54.2 | 82.5 | 93.9 | 93.9 | 83.7 | 84.3 | 88.3 | 87.4 | 79.5 | 84.2 | 77 | 76.6 | 96.7 | 96.3 | 85.2 | 90.9 | 94.1 | 86.2 | 95.2 | 90.1 | 94.2 | 77.3 | 70.3 |
| COc1cccc(OC)c1-c1cc(C(=O)NC2(C(=O)O)C3CC4CC(C3)CC2C4)nn1-c1ccnc2cc(Cl)ccc12 (stereo unspecified) | 129 | 111 | 125 | 135 | 119 | 123 | 102 | 118 | 116 | 111 | 98.9 | 102 | 99.6 | 97.9 | 109 | 99.7 | 100 | 104 | 97.3 | 104 | 107 | 90.8 | 104 | 116 | 108 | 109 | 113 | 104 | 101 | 95.2 | 108 | 91 | 105 |
| OC[C@H]1OC(O)C[C@@H](O)[C@@H]1O (stereo partly specified) | 110 | 113 | 127 | 125 | 125 | 128 | 121 | 135 | 109 | 122 | 52.4 | – | – | – | – | – | – | – | – | – | – | – | 109 | 118 | 128 | 125 | 137 | 123 | 120 | 142 | 128 | 129 | 68 |
| CCc1nc(N)nc(N)c1-c1ccc(Cl)cc1 | 78.8 | 118 | 93.3 | 92.8 | 105 | 108 | 96.1 | 47.7 | 48 | 44.6 | 38.7 | 81.1 | 99.5 | 84.8 | 83.7 | 86.1 | 86.4 | 90.6 | 90.5 | 89.9 | 89.1 | 89.6 | 84 | 94.3 | 90.3 | 100 | 106 | 104 | 96.8 | 104 | 90.2 | 56.3 | 35.3 |
| Cc1cc(/C=c2/sc3nc4ccccc4n3c2=O)c(C)n1-c1ccccc1 | 117 | 113 | 128 | 117 | 132 | 120 | 130 | 119 | 128 | 113 | 123 | 111 | 128 | 115 | 127 | 125 | 126 | 105 | 111 | 119 | 109 | 104 | 121 | 127 | 115 | 137 | 126 | 127 | 121 | 127 | 126 | 133 | 121 |
| N#CC1(c2cccc(C(=O)Nc3cc(Oc4ccc5nc(NC(=O)C6CC6)sc5n4)ccc3F)c2Cl)CC1 | 105 | 121 | 114 | 113 | 119 | 93.8 | 91 | 56.6 | 39.2 | 18.2 | 18.2 | 115 | 113 | 107 | 100 | 103 | 105 | 104 | 76.7 | 48.8 | 10.7 | 10.6 | 118 | 123 | 96.5 | 98.2 | 98.7 | 90.6 | 72.9 | 70.1 | 53.9 | 16.9 | 15.6 |
| CN1CCN(CC1)C2=CC3=C([NH]C(=N3)C/4=C(\N)C5=C(F)C=CC=C5NC4=O)C=C2 | 104 | 99.7 | 98.5 | 97.4 | 96.3 | 102 | 97.2 | 93.9 | 60.8 | 49.7 | 51.1 | 101 | 107 | 96.7 | 107 | 111 | 109 | 107 | 104 | 87.9 | 68.3 | 58.6 | 92.1 | 99.9 | 115 | 96.1 | 99 | 102 | 100 | 92.3 | 79.7 | 63.1 | 53.4 |
| CCCCCN(C)CCC(O)(P(=O)([O-])O)P(=O)(O)O | 68.4 | 81.8 | 89 | 101 | 85.3 | 92.9 | 89.5 | 92.4 | 86 | 80 | 94 | 81.1 | 88.8 | 89.5 | 96.7 | 97.3 | 99.9 | 97.9 | 94.4 | 95 | 84.8 | 81.7 | 84.6 | 87.3 | 86.1 | 80 | 93.7 | 101 | 96.5 | 90.8 | 85.2 | 94.1 | 75 |
| c1ccc2c(CN3CCNCC3)cccc2c1 | 99.6 | 113 | 124 | 106 | 112 | 121 | 113 | 112 | 104 | 99.7 | 93.7 | 103 | 124 | 115 | 117 | 117 | 126 | 115 | 133 | 110 | 99.9 | 51.6 | 108 | 113 | 106 | 117 | 115 | 122 | 129 | 122 | 116 | 91.7 | 64.9 |
| O=C1\C=C(OC2=C(C=CC=C12)C3=CC=CC4=C3SC5=C4C=CC=C5)\N6CCOCC6 | 123 | 123 | 129 | 128 | 135 | 121 | 135 | 133 | 114 | 132 | 112 | – | – | – | – | – | – | – | – | – | – | – | 113 | 121 | 125 | 131 | 128 | 129 | 133 | 136 | 116 | 117 | 107 |
| CC(C)[C@]12O[C@H]1[C@@H]3O[C@@]34[C@@]5(C)CC\C6=C(COC6=O)/[C@@H]5C[C@@H]7O[C@]47[C@@H]2O | 118 | 7.83 | 7.37 | 6.84 | 8.16 | 7.58 | 7.57 | 6.99 | 6.9 | 3.84 | 2.95 | 107 | 6.29 | 7.04 | 6.27 | 7.93 | 7.51 | 6.66 | 6.58 | 5 | 4.13 | 1.89 | 106 | 5.9 | 5.75 | 5.32 | 6.01 | 6.39 | 5.39 | 5.08 | 4.8 | 3.96 | 2.22 |
| OC1=C(Cl)C=C(N\C2=C(\C(=O)NC2=O)C3=C(C=CC=C3)[N+]([O-])=O)C=C1 | 100 | 98.3 | 103 | 106 | 120 | 106 | 83.8 | 70 | 68.9 | 56.8 | 60.7 | 94.3 | 106 | 116 | 102 | 99.5 | 95.9 | 94.5 | 95.4 | 86.5 | 69.6 | 10.1 | 90.2 | 98.7 | 102 | 112 | 119 | 116 | 96.4 | 94.2 | 78.6 | 73.9 | 12.1 |
| c1coc(CNc2ncnc3nc[nH]c23)c1 | 120 | 126 | 123 | 133 | 129 | 136 | 117 | 118 | 118 | 108 | 97.3 | 125 | 131 | 124 | 113 | 116 | 119 | 140 | 132 | 118 | 119 | 108 | 124 | 122 | 125 | 124 | 128 | 121 | 121 | 112 | 107 | 94.1 | 88.5 |
